Columns and labels:
Type in all cases: cell-based, human
[1] = test system: A549/ATCC; test: NCI60 antitumor screening
[2] = test system: NCI-H322M; test: NCI60 antitumor screening
[3] = test system: UACC-62; test: NCI60 antitumor screening
[4] = test system: MCF7; test: NCI60 antitumor screening
[5] = test system: MDA-MB-231/ATCC; test: NCI60 antitumor screening; details: Homo sapiens; 10 μM single dose; MDA-MB-231/ATCC (breast cancer); read-out: growth inhibition percent (GI%)
[6] = test system: MDA-MB-468; test: NCI60 antitumor screening
[7] = test system: OVCAR-4; test: NCI60 antitumor screening
[8] = test system: NCI-H226; test: NCI60 antitumor screening
[9] = test system: SF-268; test: NCI60 antitumor screening
[10] = test system: breast cancer subpanel; test: NCI60 five-dose, subpanel IX
From the text: (2) The molar concentration of the compound responsible for total growth inhibition, also known as total growth inhibition (TGI).
Regarding subpanel selectivity toward certain cancer type, the method of determining a compound's selectivity index is to divide the full panel MG-MID (μM) value by each single subpanel. Values above six indicate high selectivity against the subpanel; moderate selectivity is denoted by values between three and six. Conversely, compounds are termed nonselective if their selectivity is less than three.[30,37]

[11] = test system: CAKI-1; test: NCI60 antitumor screening
[12] = test system: HCT-15; test: NCI60 antitumor screening
[13] = test system: SW-620; test: NCI60 antitumor screening
[14] = test system: K-562; test: NCI60 antitumor screening
[15] = test system: HOP-92; test: NCI60 antitumor screening
[16] = Homo sapiens, NCI-H322M, five-dose
[17] = Homo sapiens, MDA-MB-468, five-dose
[18] = Homo sapiens, OVCAR-4, five-dose
[19] = full panel MG-MID / subpanel IX

N#Cc1c(-c2ccc(F)cc2)nc(SCc2ccccc2)nc1N1CCNCC1 [4e, 2-(Benzylthio)-4-(4-fluorophenyl)-6-(piperazin-1-yl) pyrimidine-5-carbonitrile]
inhibition at 10 µM ([1]; Homo sapiens, 10 μM single dose, A549/ATCC (non-small cell lung cancer), read-out: growth inhibition percent (GI%)): > 100% | TGI ([1]; five-dose): 21.50 µM | GI50 [2, 16]: 14.3 µM | LC50 (50% lethal concentration) [2, 16]: 54.2 µM | inhibition at 10 µM ([2]; Homo sapiens, 10 μM single dose, NCI-H322M (non-small cell lung cancer), read-out: growth inhibition percent (GI%)): > 100% | TGI ([2]; five-dose): 27.90 µM | GI50 ([3]; Homo sapiens, UACC-62, five-dose): 14.4 µM | CC50 ([3]; Homo sapiens, UACC-62, five-dose, read-out: LC50 (the source's name)): 55 µM | inhibition at 10 µM ([3]; Homo sapiens, 10 μM single dose, UACC-62 (melanoma), read-out: growth inhibition percent (GI%)): > 100% | TGI ([3]; five-dose): 28.20 µM | GI50 ([4]; Homo sapiens, MCF7, five-dose): 3.94 µM | CC50 ([4]; Homo sapiens, MCF7, five-dose, read-out: LC50 (the source's name)): 44.8 µM | inhibition at 10 µM ([4]; Homo sapiens, 10 μM single dose, MCF7 (breast cancer), read-out: growth inhibition percent (GI%)): > 100% | TGI ([4]; five-dose): 15.30 µM | inhibition at 10 µM [5]: > 100% | GI50 [6, 17]: 6.71 µM | LC50 [6, 17]: 51.6 µM | inhibition at 10 µM ([6]; Homo sapiens, 10 μM single dose, MDA-MB-468 (breast cancer), read-out: growth inhibition percent (GI%)): > 100% | TGI ([6]; five-dose): 21.30 µM | GI50 [7, 18]: 15.7 µM | LC50 (lethal concentration, 50% cell kill) [7, 18]: 74.7 µM | inhibition at 10 µM ([7]; Homo sapiens, 10 μM single dose, OVCAR-4 (ovarian cancer), read-out: growth inhibition percent (GI%)): > 100% | TGI ([7]; five-dose): 34.20 µM | GI50 ([8]; Homo sapiens, NCI-H226, five-dose): 13.8 µM | CC50 ([8]; Homo sapiens, NCI-H226, five-dose, read-out: LC50 (the source's name)): 81.3 µM | inhibition at 10 µM ([8]; Homo sapiens, 10 μM single dose, NCI-H226 (non-small cell lung cancer), read-out: growth inhibition percent (GI%)): > 100% | TGI ([8]; five-dose): 33.40 µM | GI50 ([9]; Homo sapiens, SF-268, five-dose): 12.9 µM | CC50 ([9]; Homo sapiens, SF-268, five-dose, read-out: LC50 (the source's name)): 65.4 µM | inhibition at 10 µM ([9]; Homo sapiens, 10 μM single dose, SF-268 (CNS cancer), read-out: growth inhibition percent (GI%)): > 100% | TGI ([9]; five-dose): 29.10 µM | GI50 ([10]; Homo sapiens, subpanel IX, read-out: MG-MID (GI50)): 9.57 µM | Selectivity index (GI50) [10, 19]: 1.11 | Selectivity index (TGI) [10, 19]: 0.98 | MG-MID (TGI) ([10]; subpanel IX): 23.96 µM | GI50 ([11]; Homo sapiens, CAKI-1, five-dose): 16 µM | CC50 ([11]; Homo sapiens, CAKI-1, five-dose, read-out: LC50 (the source's name)): 55.1 µM | inhibition at 10 µM ([11]; Homo sapiens, 10 μM single dose, CAKI-1 (renal cancer), read-out: growth inhibition percent (GI%)): > 100% | TGI ([11]; five-dose): 29.70 µM | GI50 ([12]; Homo sapiens, HCT-15, five-dose): 5.05 µM | CC50 ([12]; Homo sapiens, HCT-15, five-dose, read-out: LC50 (the source's name)): 43.8 µM | inhibition at 10 µM ([12]; Homo sapiens, 10 μM single dose, HCT-15 (colon cancer), read-out: growth inhibition percent (GI%)): > 100% | TGI ([12]; five-dose): 17.50 µM | GI50 ([13]; Homo sapiens, SW-620, five-dose): 3.38 µM | CC50 ([13]; Homo sapiens, SW-620, five-dose, read-out: LC50 (the source's name)): 40.9 µM | inhibition at 10 µM ([13]; Homo sapiens, 10 μM single dose, SW-620 (colon cancer), read-out: growth inhibition percent (GI%)): > 100% | TGI ([13]; five-dose): 13.10 µM | GI50 ([14]; Homo sapiens, K562, five-dose): 2.21 µM | CC50 ([14]; Homo sapiens, K562, five-dose, read-out: LC50 (the source's name)): 18.7 µM | inhibition at 10 µM ([14]; Homo sapiens, 10 μM single dose, (leukaemia), read-out: growth inhibition percent (GI%)): > 100% | TGI ([14]; five-dose): 5.42 µM | GI50 ([15]; Homo sapiens, HOP-92, five-dose): 4.2 µM | CC50 ([15]; Homo sapiens, HOP-92, five-dose, read-out: LC50 (the source's name)): 48.4 µM | inhibition at 10 µM ([15]; Homo sapiens, 10 μM single dose, HOP-92 (non-small cell lung cancer), read-out: growth inhibition percent (GI%)): > 100% | TGI ([15]; five-dose): 18.10 µM

Reference: PMC10620772, “Design, synthesis, and biological evaluation of new pyrimidine-5-carbonitrile derivatives as novel anti-cancer, dual EGFR^WT/COX-2 inhibitors with docking studies” (RSC Advances, 2023)
